{"source": "patent EP0054512A2", "about": "“Cephalosporin esters, process for their preparation and pharmaceutical compositions containing them” (CIBA-GEIGY AG, priority 1980, dated 1982)", "tested_on": "Escherichia coli, Proteus spp. und anderen", "experiment": "Systemic gram-negative infection in the mouse, oral administration", "set-up": "species or system Maus", "settings": "in vivo, oral administration to the mouse, systemic gram-negative infections, range across pathogens", "text": "Die Verbindungen der Formel I, worin Am eine freie Aminogruppe ist und ihre pharmazeutisch verwendbaren, nichttoxischen Salze sind wertvolle, antibiotisch wirksame Substanzen, die insbesondere als antibakterielle Antibiotika verwendet werden können.", "data": [{"smiles": "CCOC(=O)OC(C)OC(=O)C1=CCS[C@@H]2[C@H](NC(=O)/C(=N\\OC)c3csc(N)n3)C(=O)N12", "note": "(stereo partly shown) [7ß-[2-(2-Amino-4-thiazolyl)-2-methoxyiminoacetamido]-3-cephem-4-carbonsäure-1-äthoxycarbonyloxyäthylester]", "values": [{"measurement": "ED50", "value": "0.3 to 150", "unit": "mg/kg"}]}]}
